# Columns and labels:
# [1] = system: AA-induced platelet aggregation; assay: Inhibitory effect on AA-induced platelet aggregation in rabbits in vitro; format: cell-based, rabbit; conditions: 1*10^−4 M; text conclusion (2)
# Experimental: Several experimental groups were established, including a blank control group, an AA model control group, and various test compounds. Each test compound had three concentration groups: 10^−3 M, 10^−4 M, and 10^−5 M.
# Rabbits were anesthetized with a 20% urethane solution (5 mL/kg body weight) through intraperitoneal injection. After being fixed in a supine position, the skin of the neck was cut about 6 cm, bluntly separated with a hemostat, and the trachea was exposed after the common carotid artery was separated. The distal end of the common carotid artery was ligated with a fine thread, and the proximal end was clamped with an arterial clamp for vascular intubation. After the intubation was fixed, the artery clamp was opened, and the blood was placed into a blood collection tube containing 3.8% trisodium citrate so that the blood was mixed well with the 3.8% trisodium citrate in a volume ratio of 9:1. […]
# First, 300 μL of PPP was added to the test cup and put into the test wells, and calibrated by pressing the “PPP” key. […] The maximum aggregation rate within 4 minutes was measured. […]
# The platelet aggregation inhibition rate was calculated with the following formula: […]
# All data were expressed as mean standard deviation (mean b SD). […] Intergroup data were analyzed using one-way ANOVA, with P<0.05 considered as statistically significant and P<0.01 considered as highly significant.
# [2] = system: AA-induced platelet aggregation; assay: Inhibitory effect on AA-induced platelet aggregation in rats in vitro (washed platelets); format: cell-based, rat; conditions: 1*10^−4 M
# Experimental: Several experimental groups were established, including a blank control group, an AA (arachidonic acid) model control group, and various test compounds. Each test compound had three concentration groups: 10^−3 M, 10^−4 M, and 10^−5 M. The data from the blank and model control group were shared among the different drug concentration groups as a control.
# Male SD rats were anesthetized with 3% chloral hydrate (300 mg/kg) through intraperitoneal injection. After being fixed in a supine position, the skin of the neck was cut about 3 cm, bluntly separated with a hemostat, and the trachea was exposed after the common carotid artery was separated. The distal end of the common carotid artery was ligated with a fine thread, and the proximal end was clamped with an arterial clamp for vascular intubation. After the intubation was fixed, the artery clamp was opened, and the blood was placed into a blood collection tube containing 3.8% trisodium citrate so that the blood was mixed well with the 3.8% trisodium citrate in a volume ratio of 9:1.
# The prepared anticoagulant blood was mixed well and centrifuged for 10 minutes at 500 rpm, then the upper layer of plasma was aspirated to obtain platelet-rich plasma (PRP), and the PRP was centrifuged again for 5 minutes at 3,000 rpm. The supernatant was discarded, and the platelet precipitate was obtained, which was washed once with Ca^2+-free HEPES-Tyrode's buffer, then centrifuged at 3,000 rpm for 5 minutes. The supernatant was discarded, and the platelets were resuspended with Ca^2+-free HEPES-Tyrode's buffer to obtain the washed platelets.
# First, 300 μL of Ca^2+-containing HEPES-Tyrode's solution was taken into the test cup, put into the test wells, and calibrated by pressing the “PPP” key. Subsequently, 240 μL of the washed platelets were added to the test cup, then added with 30 μL of different concentrations of drug solution, incubated for 10 minutes at 37° C. in a preheated bath, and then put into the test wells. 3 μL of 100× CaCl2 solution (final concentration of 0.2 g/L) and 30 μL of inducer (final concentration of AA of 800 μM) were added to the test wells, and then the “Start” key was pressed immediately. The maximum aggregation rate was recorded every 60 s. The measurement was repeated three times for each concentration for 10 minutes, and the aggregation curve was plotted.
# The platelet aggregation inhibition rate was calculated with the following formula:
# Inhibition rate (%)=(maximum aggregation rate in the model control group−maximum aggregation rate in the administration group)/maximum aggregation rate in the model control group×100%
# All data were expressed as mean±standard deviation (mean±SD). SPSS 22.0 software was used for statistical analysis of the data. Intergroup data were analyzed using one-way ANOVA, with P<0.05 considered as statistically significant and P<0.01 considered as highly significant.
# [3] = system: MCAO/R rats; assay: Therapeutic administration (i.v.) in middle cerebral artery occlusion/reperfusion (MCAO/R) rats; format: in vivo, rat; conditions: for Bleeding time / Brain water content (%) / Cerebral infarction rate (%) / Clotting time / Neurological function score: once a day for 3 days, mean ± SD, n = 8; for Neurological function score: modified Bederson score
# Experimental: Male SD rats weighing 250 to 300 g were taken, and the rats in each group fasted for 12 hours before modeling, while water was not restricted. According to the method of Longa et al.^[1], a rat model of MCAO/R was established by occluding the blood flow of internal carotid artery using the thread embolization method. The rats were anesthetized with 3% chloral hydrate (300 mg/kg, 1 mL/100 g body weight) through intraperitoneal injection and fixed in the supine position on the operating table. A midline incision was made in the neck, and the right common carotid artery was isolated using forceps and threaded for later use. The external and internal carotid arteries were isolated from the bifurcation of the common carotid artery. A single thread was threaded through the internal carotid artery, and two threads were threaded through the external carotid artery. Both distal and proximal ends were ligated, and the middle part of the ligation site was cut using ophthalmic scissors. The proximal main trunk of the external carotid artery was isolated and reserved for later use. The prepared cotton thread was used to half-ligate the common carotid artery (tying a slipknot), and the thread prepared for the internal carotid artery was tightened with hemostatic forceps, temporarily occluding the blood flow of the internal carotid artery. A small incision at the proximal main trunk of the external carotid artery was made using ophthalmic scissors, and then, the fishing line was held with straight forceps, inserted from this incision, and slowly advanced through the isolated proximal main trunk of the external carotid artery towards the intracranial direction of the internal carotid artery. The advancement was stopped at a predetermined position, and then the thread of the internal carotid artery that was tightened with the hemostatic forceps was loosened. […] Another thread was threaded and tightened around the proximal main trunk of the external carotid artery and the fishing line that had already been inserted into the predetermined position. The half-ligated thread on the common carotid artery was then loosened, and the skin was subsequently sutured. After 2 hours of ischemia, a small section of the fishing line was pulled out. […] After rats in the blank control group were anesthetized, only the bifurcation of the internal and external carotid arteries was exposed without the occlusion of the MCA.
# Successfully modeled rats (neurological function score of 3 after reperfusion) were taken and divided into 20 groups (8 rats for each) according to the random number table method. The groups were divided into a model control group, three dose groups (high, 12 mg/kg, 2.4 mg/mL; medium, 6 mg/kg, 1.2 mg/mL; low, 3 mg/kg, 0.6 mg/mL) for each of the six test compounds, and a positive drug Ozagrel group (6 mg/kg, 1.2 mg/mL), respectively. Both blank and model control groups were administered equal volumes of mixed solvents, and the rats in each group were administered by tail vein injection (i.v.) 2 hours after reperfusion, once a day for 3 consecutive days, with a volume of 0.5 mL/100 g body weight.
# Ten minutes after the last administration, the neurological function of the animals was graded according to the modified Bederson scoring method. The standard is as follows[2]: • 0 point: no neurological symptoms; • 1 point: when the rat is suspended by lifting its tail, the forelimb on the surgical side of the rat was flexed and pressed against the chest wall; • 2 points: on a smooth plane, when the rat is pushed from the surgical side to the opposite side, the resistance is less than when it is moved to the same side; • 3 points: the animal moves around or in circles when moving freely; • 4 points: flaccid paralysis, no spontaneous movement of limbs.
# After Bederson scoring, the rats were executed by cervical dislocation, and the whole brain was removed and weighed. After weighing, the whole brain was placed in a −20° C. refrigerator for 20 minutes. […]
# [4] = medium dose 6 mg/kg i.v. (Ozagrel group 6 mg/kg)
smiles,measurement,setting,value
"O=C(O)/C=C/c1ccc(Cn2cnc(Cl)c2)cn1 [Compound 59, (E)-3-(5-((4-Chloro-1H-imidazol-1-yl)methyl)pyridin-2-yl)acrylic acid]",significant inhibition of AA-induced platelet aggregation,[1],can significantly inhibit
"O=C(O)[C@@H]1C[C@H]1c1ccc(Cn2cnc(Cl)c2)cc1F [Compound 13, (1R,2R)-2-(4-((4-Chloro-1H-imidazol-1-yl)methyl)-2-fluorophenyl)cyclopropane-1-carboxylic acid]",significant inhibition of AA-induced platelet aggregation,[2],can significantly inhibit
same,Bleeding time,[3]; high dose 12 mg/kg i.v.,301.25 ± 46.40 s
same,Brain water content (%),[3]; high dose 12 mg/kg i.v.,80.73 ± 1.10%
same,Cerebral infarction rate (%),[3]; high dose 12 mg/kg i.v.,14.30%
same,Clotting time,[3]; high dose 12 mg/kg i.v.,163.63 s
same,Neurological function score,[3]; high dose 12 mg/kg i.v.,1.50 ± 0.53
same,infarct size,[3]; low dose,can also significantly reduce
same,Bleeding time,[3]; low dose 3 mg/kg i.v.,303.00 ± 39.59 s
same,Brain water content (%),[3]; low dose 3 mg/kg i.v.,80.87 ± 2.84%
same,Cerebral infarction rate (%),[3]; low dose 3 mg/kg i.v.,23.02%
same,Clotting time,[3]; low dose 3 mg/kg i.v.,146.94 ± 24.73 s
same,Neurological function score,[3]; low dose 3 mg/kg i.v.,2.00 ± 0.53
same,coagulation time of rats,[3]; medium and high doses,can significantly prolong
same,Bleeding time,[3]; [4],314.50 ± 41.83 s
same,Brain water content (%),[3]; [4],80.58 ± 1.56%
same,Cerebral infarction rate (%),[3]; [4],22.15%
same,Clotting time,[3]; [4],164.56 s
same,Neurological function score,[3]; [4],1.88 ± 0.64
"O=C(O)C1CN(c2ccc(Cn3ccnc3)nc2)C1 [Compound 56, 1-(6-((1H-Imidazol-1-yl)methyl)pyridin-3-yl)azetidine-3-carboxylic acid]",significant inhibition of AA-induced platelet aggregation,[1],can significantly inhibit

# — patent US20240336638A1, “IMIDAZOLE COMPOUND, AND INTERMEDIATE AND APPLICATION THEREOF” (priority 2021, published 2024)
